The results in this text go back to patent publication US20150313927A1, “AN EDIBLE COMPOSITION COMPRISING RESVERATROL AND FLAVONOID MONOGLUCOSIDE” (Conopco, Inc., d/b/a UNILEVER, priority 2012, published 2015).

Several values for one entry are separate records, joined by “and”; a condition that tells them apart may be missing. Equal values may be shown once.

Series [1] addresses T1, GLUT2 (Homo sapiens, UniProt P11168).
T1 sequence (P11168 1-524): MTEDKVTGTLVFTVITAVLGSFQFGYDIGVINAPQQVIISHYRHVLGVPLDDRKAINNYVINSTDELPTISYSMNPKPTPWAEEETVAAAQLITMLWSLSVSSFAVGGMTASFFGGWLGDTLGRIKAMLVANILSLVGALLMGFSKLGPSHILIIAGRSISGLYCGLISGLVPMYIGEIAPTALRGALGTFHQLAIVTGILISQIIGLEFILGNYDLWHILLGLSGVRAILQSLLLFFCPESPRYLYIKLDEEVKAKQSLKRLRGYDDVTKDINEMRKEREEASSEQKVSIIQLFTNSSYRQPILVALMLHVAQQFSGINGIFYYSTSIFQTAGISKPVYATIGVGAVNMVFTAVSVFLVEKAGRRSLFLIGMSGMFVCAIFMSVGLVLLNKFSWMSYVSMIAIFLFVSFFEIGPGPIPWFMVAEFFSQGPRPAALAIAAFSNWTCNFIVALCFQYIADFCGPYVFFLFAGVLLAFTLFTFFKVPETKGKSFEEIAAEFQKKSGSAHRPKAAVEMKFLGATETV
The series can be described thus: Glucose transport inhibitor cell screening assay, 25 mM D-glucose for 30 minutes. The conditions noted are these: for % Glucose Transport inhibition 25 mM / GLUT2 inhibition (in words): 25 mM D-glucose; for % Glucose Transport inhibition 25 mM: 30 minutes, actives at 150 uM, differentiated Caco-2 monolayer; for inhibition at 25000 µM: Caco-2, read-out: % Glucose Transport inhibition 25 mM; for GLUT2 inhibition (in words): Caco-2 cell model. In general terms: Passage across Caco-2 layers is used to estimate intestinal permeability.

The target of series [2] is T2, Human Lactase Phloridzin Hydrolase (hLPH) (Homo sapiens, UniProt P09848).
T2 construct: at confluence for 21 days prior to extraction with a Novagen ProteoExtract™ trans-membrane Protein Extraction kit; endogenous in cells; host or cells: Caco-2 cells (ATCC), 21 days at confluence; membrane protein extract desalted over G-25 Sephadex
T2 sequence (P09848 869-1927): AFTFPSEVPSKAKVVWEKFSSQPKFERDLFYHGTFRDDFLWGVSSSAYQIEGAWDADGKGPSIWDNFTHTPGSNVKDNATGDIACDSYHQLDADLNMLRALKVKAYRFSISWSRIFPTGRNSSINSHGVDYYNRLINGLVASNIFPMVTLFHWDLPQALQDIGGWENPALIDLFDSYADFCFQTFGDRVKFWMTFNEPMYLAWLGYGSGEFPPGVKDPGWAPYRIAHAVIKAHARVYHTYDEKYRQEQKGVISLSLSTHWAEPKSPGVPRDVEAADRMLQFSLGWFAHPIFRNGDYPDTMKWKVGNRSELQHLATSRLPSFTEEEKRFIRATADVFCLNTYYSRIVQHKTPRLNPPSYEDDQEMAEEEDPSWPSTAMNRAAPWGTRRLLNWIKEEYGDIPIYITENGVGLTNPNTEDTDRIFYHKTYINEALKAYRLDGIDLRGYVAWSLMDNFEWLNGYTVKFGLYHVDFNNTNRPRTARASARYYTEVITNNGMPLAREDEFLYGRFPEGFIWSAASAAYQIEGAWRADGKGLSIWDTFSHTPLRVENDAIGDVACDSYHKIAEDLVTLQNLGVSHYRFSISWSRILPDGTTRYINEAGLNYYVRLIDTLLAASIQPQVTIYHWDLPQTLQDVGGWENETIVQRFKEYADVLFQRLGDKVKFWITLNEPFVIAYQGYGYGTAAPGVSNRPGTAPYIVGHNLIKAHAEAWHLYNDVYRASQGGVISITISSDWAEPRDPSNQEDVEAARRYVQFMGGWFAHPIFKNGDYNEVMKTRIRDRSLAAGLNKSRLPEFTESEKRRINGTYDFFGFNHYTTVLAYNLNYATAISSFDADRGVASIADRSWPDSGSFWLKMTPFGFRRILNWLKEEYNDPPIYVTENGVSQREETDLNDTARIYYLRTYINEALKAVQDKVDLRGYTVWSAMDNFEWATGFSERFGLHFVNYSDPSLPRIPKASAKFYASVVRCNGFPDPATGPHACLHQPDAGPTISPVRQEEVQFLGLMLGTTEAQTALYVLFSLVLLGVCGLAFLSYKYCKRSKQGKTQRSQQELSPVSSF
As to the kind of experiment: hLPH enzyme assay (glucoside hydrolysis by LPH extract). In kind it is in vitro ADME. The conditions noted are these: for μM substrate hydrolysed/hr: glucoside 1.0 mM, 10% LPH extract (Caco2), 1 hour, 37° C., pH 6.0; for Resistance to hydrolysis - % Q4G: resistance to LPH hydrolysis relative to quercetin-4-glucoside (Q4G). The procedure: Extracts were stored at −80° C. in 50 ul aliquots. Prior to use extracts were semi-purified, removing low molecular weight interfering components by passing through a small G-25 Sephadex 50-100 μl spin-column (Roche or ThermoFisher Scientific). 10 μl of semi-purified LPH extract was added to 90 μl of glucoside (1.0 mM final concentration) in 0.1 M maleate (Sigma) buffer, pH 6.0 and incubated for 60 minutes at 37° C. The reaction was terminated by addition of 200 μl 2M Tris (Sigma), pH 8.0. […] This allowed a full recovery of glucose which was measured using the Amplex® Red Glucose/Glucose Oxidase Assay. […] Fluorescence was read on a SpectraMax Gemini EM SN plate reader (Molecular Devices) (excitation. 530 nm and emission at 590 nm).

Series [3] relates to SGLT1. The series can be described thus: Glucose transport inhibitor cell screening assay, 5 mM D-glucose for 15 minutes. The conditions noted are these: for % Glucose Transport inhibition 5 mM / SGLT1 inhibitory activity (in words): 5 mM D-glucose; for % Glucose Transport inhibition 5 mM: 15 minutes, actives at 300 uM, differentiated Caco-2 monolayer; for SGLT1 inhibitory activity (in words): Caco-2 cell model; for Class (assigned class of transporter inhibited): based on inhibition at 5 mM and 25 mM D-glucose.

For series [4], the system named is differentiated Caco-2 monolayers. As to the kind of experiment: Glucose transport cell model, total cumulative glucose transport (synergy). The conditions noted are these: active only in 25 mM D-glucose for remaining 45 minutes (NC Pz 300 μM, NC R 75 μM). In kind it is cell-based, Human.

Take `O=c1cc(-c2ccc(O)cc2)oc2cc(OC3O[C@H](CO)[C@@H](O)[C@H](O)[C@H]3O)cc(O)c12` (stereo partly drawn) [Apigenin-7-glucoside]: in series [1], the “% Glucose Transport inhibition 25 mM” value turned out to be 12.81%.

As to `O=c1cc(-c2ccc(O)cc2)oc2c([C@@H]3O[C@H](CO)[C@@H](O)[C@H](O)[C@H]3O)c(O)cc(O)c12` [Apigenin-8-C-glucoside], the μM substrate hydrolysed/hr in series [2] is listed as 0.685 μM substrate hydrolysed/hr. In series [2] (listed as A8G), the “Resistance to hydrolysis - % Q4G” value was found to be 77.90%. Moreover, the “% Glucose Transport inhibition 25 mM” value in series [1] was 5.76%. In series [3], the “% Glucose Transport inhibition 5 mM” value was determined as 33.84%, the “SGLT1 inhibitory activity (in words)” value is on record as “inhibition of SGLT1” and the “Class (assigned class of transporter inhibited)” value is reported as “SGLT1”.

For `Oc1cc(O)c2cc(O)c(-c3ccc(O)c(O)c3)[o+]c2c1` [Cyanidin], the “% Glucose Transport inhibition 5 mM” value in series [3] is listed as 7.93%.

With `O=c1c(-c2ccc(O)cc2)coc2cc(O[C@@H]3O[C@H](CO)[C@@H](O)[C@H](O)[C@H]3O)ccc12` [Daidzein-7-glucoside], the “% Glucose Transport inhibition 25 mM” value in series [1] is reported as 7.23%. Moreover, in series [3], the “% Glucose Transport inhibition 5 mM” value came out at 35.03%, the “SGLT1 inhibitory activity (in words)” value is listed as “inhibition of SGLT1” and the “Class (assigned class of transporter inhibited)” value is given as “SGLT1”.

In the case of `O=c1c(-c2ccc(O)cc2)coc2c([C@@H]3O[C@H](CO)[C@@H](O)[C@H](O)[C@H]3O)c(O)ccc12` [Daidzein-8-C-glucoside], the “Resistance to hydrolysis - % Q4G” value in series [2] (listed as D8G) worked out at 82.19%.

`Oc1cc(O)c2cc(O)c(-c3cc(O)c(O)c(O)c3)[o+]c2c1` [Delphinindin]: the “% Glucose Transport inhibition 25 mM” value in series [1] is 15.86%. Also, in series [3], the “Class (assigned class of transporter inhibited)” value was “None”.

As to `O=C1C[C@@H](c2ccc(O)c(O)c2)Oc2cc(O[C@@H]3O[C@H](CO)[C@@H](O)[C@H](O)[C@H]3O)cc(O)c21` [Eriodictyol-7-O-glucoside], in series [1], the “% Glucose Transport inhibition 25 mM” value stood at 4.98%.

On to `O=c1c(O[C@@H]2O[C@H](CO)[C@@H](O)[C@H](O)[C@H]2O)c(-c2ccc(O)cc2)oc2cc(O)cc(O)c12` [Kaempferol 3-O-glucoside], for which the “Resistance to hydrolysis - % Q4G” value in series [2] (listed as K3G) was 92.8% and 92.78%.

With `O=c1c(O)c(-c2ccc(O)cc2)oc2cc(O[C@@H]3O[C@H](CO)[C@@H](O)[C@H](O)[C@H]3O)cc(O)c12` [Kaempferol 7-O-glucoside], in series [2], the μM substrate hydrolysed/hr is recorded as 0.618 μM substrate hydrolysed/hr. In series [2] (listed as K7G), the “Resistance to hydrolysis - % Q4G” value was 80.05%. For the same compound, in series [1], the “% Glucose Transport inhibition 25 mM” value is on record as 14.42%. Also, in series [3], the “% Glucose Transport inhibition 5 mM” value is reported as 43.89%, the “SGLT1 inhibitory activity (in words)” value is “inhibition of SGLT1” and the “Class (assigned class of transporter inhibited)” value is “SGLT1”.

With `O=c1cc(-c2ccc(O)c(O)c2)oc2cc(O[C@@H]3O[C@H](CO)[C@@H](O)[C@H](O)[C@H]3O)cc(O)c12` [Luteolin-7-glucoside], the μM substrate hydrolysed/hr in series [2] was 0.814 μM substrate hydrolysed/hr. The “Resistance to hydrolysis - % Q4G” value in series [2] (listed as L7G) worked out at 73.72%. Further, the “% Glucose Transport inhibition 25 mM” value in series [1] stood at 17.03%. In series [3], the “% Glucose Transport inhibition 5 mM” value turned out to be 44.09%, the “SGLT1 inhibitory activity (in words)” value was “inhibition of SGLT1” and the “Class (assigned class of transporter inhibited)” value is given as “SGLT1”.

For the compound `COc1cc(-c2[o+]c3cc(O)cc(O)c3cc2O[C@@H]2O[C@H](CO)[C@H](O)[C@H](O)[C@H]2O)cc(OC)c1O` [Malvidin 3-O-Galactoside], in series [1], the “% Glucose Transport inhibition 25 mM” value came out at 10.41%.

In the case of `COc1cc(-c2[o+]c3cc(O)cc(O)c3cc2O[C@@H]2O[C@H](CO)[C@@H](O)[C@H](O)[C@H]2O)cc(OC)c1O` [Malvidin-3-O-glucoside], the “% Glucose Transport inhibition 25 mM” value in series [1] stood at 10.91%.

`COc1cc(-c2[o+]c3cc(O)cc(O)c3cc2O)cc(OC)c1O` [Malvidin]: in series [1], the inhibition (as a rule, the drop in the measured response relative to a control, in per cent) at 25000 µM was 4.99%. For the same compound, the “% Glucose Transport inhibition 5 mM” value in series [3] stood at 14.21%.

As for `O=C1CC(c2ccc(O)cc2)Oc2cc(O[C@@H]3O[C@H](CO)[C@@H](O)[C@H](O)[C@H]3O)cc(O)c21` (stereo partly drawn) [Naringenin-7-O-glucoside], in series [2] (listed as N7G), the “Resistance to hydrolysis - % Q4G” value was 49.5% and 49.52%. For the same compound, the “% Glucose Transport inhibition 25 mM” value in series [1] was 0.06%.

Take `OC[C@H]1O[C@@H](Oc2cc3c(O)cc(O)cc3[o+]c2-c2ccc(O)cc2)[C@H](O)[C@@H](O)[C@@H]1O` [Pelargonidin-3-glucoside]: the “Resistance to hydrolysis - % Q4G” value in series [2] (listed as P3G) is 58.94%.

Turning to `Oc1ccc(-c2[o+]c3cc(O)cc(O)c3cc2O)cc1` [Pelargonidin], the inhibition at 25000 µM in series [1] worked out at 16.5%. Further, the “% Glucose Transport inhibition 5 mM” value in series [3] came out at 4.07%.

Turning to `O=C(CCc1ccc(O)cc1)c1c(O)cc(O)cc1O[C@@H]1O[C@H](CO)[C@@H](O)[C@H](O)[C@H]1O` [Phloridzin, reference compound], in series [4], the “total Cumulative Glucose Transport (tCGT), active added later with high D-glucose” value is on record as “no inhibition”. The μM substrate hydrolysed/hr in series [2] is recorded as 0.507 μM substrate hydrolysed/hr. The “Resistance to hydrolysis - % Q4G” value in series [2] is “at least 20%”; in series [2] (listed as PLZ) it was 83.64%. Moreover, in series [1], the inhibition at 25000 µM came out at 18.4%.

For the compound `Oc1cc(O)cc(/C=C/c2ccc(O)c(O)c2)c1` [Piceatannol], the inhibition at 25000 µM in series [1] was determined as 32.7%. Moreover, in series [3], the “% Glucose Transport inhibition 5 mM” value is listed as 89.28% and the “Class (assigned class of transporter inhibited)” value is reported as “GLUT2 (GLUT2 having >20% inhibition at both 5 mM & 25 mM)”.

As for `COc1cc(/C=C/c2ccc(O)cc2)cc(OC)c1` [Pterostilbene], the inhibition at 25000 µM in series [1] stood at 8.26%. Also, in series [3], the “% Glucose Transport inhibition 5 mM” value is 18.44%.

Take `Oc1ccc(C=Cc2cc(O)cc(O)c2)cc1` [Resveratrol]: the “total Cumulative Glucose Transport (tCGT), active added later with high D-glucose” value in series [4] is “significant reduction”. In addition, in series [1], the inhibition at 25000 µM was determined as 59% and the “GLUT2 inhibition (in words)” value was “GLUT2 inhibitors”. Moreover, in series [3], the “% Glucose Transport inhibition 5 mM” value was determined as 76.07% and the “Class (assigned class of transporter inhibited)” value is reported as “GLUT2 (GLUT2 having >20% inhibition at both 5 mM & 25 mM)”.

`OC[C@H]1O[C@@H](Oc2ccc(O)cc2)[C@H](O)[C@@H](O)[C@@H]1O` [arbutin]: the “SGLT1 inhibitory activity (in words)” value in series [3] is on record as “lack of SGLT1 inhibitory activity”.

As for `O=C(O)/C=C/c1ccc(O)c(O)c1` [caffeic acid], the “GLUT2 inhibition (in words)” value in series [1] was “no inhibitory activity”. In addition, the “SGLT1 inhibitory activity (in words)” value in series [3] was “no inhibitory activity”.

`O=C(/C=C/c1ccc(O)c(O)c1)O[C@@H]1C[C@](O)(C(=O)O)C[C@@H](O)[C@H]1O` [chlorogenic acid]: the “GLUT2 inhibition (in words)” value in series [1] is “no inhibitory activity”. Further, the “SGLT1 inhibitory activity (in words)” value in series [3] was “no inhibitory activity”.

Consider `O=C(/C=C/c1ccc(O)c(O)c1)O[C@H](Cc1ccc(O)c(O)c1)C(=O)O` [rosmarinic acid], for which the “GLUT2 inhibition (in words)” value in series [1] is “no inhibitory activity”. Further, the “SGLT1 inhibitory activity (in words)” value in series [3] was “no inhibitory activity”.
